Experiment [1] has as its target T1, Microphthalmia-associated transcription factor (Homo sapiens, UniProt O75030).
T1 sequence (O75030 whole entry): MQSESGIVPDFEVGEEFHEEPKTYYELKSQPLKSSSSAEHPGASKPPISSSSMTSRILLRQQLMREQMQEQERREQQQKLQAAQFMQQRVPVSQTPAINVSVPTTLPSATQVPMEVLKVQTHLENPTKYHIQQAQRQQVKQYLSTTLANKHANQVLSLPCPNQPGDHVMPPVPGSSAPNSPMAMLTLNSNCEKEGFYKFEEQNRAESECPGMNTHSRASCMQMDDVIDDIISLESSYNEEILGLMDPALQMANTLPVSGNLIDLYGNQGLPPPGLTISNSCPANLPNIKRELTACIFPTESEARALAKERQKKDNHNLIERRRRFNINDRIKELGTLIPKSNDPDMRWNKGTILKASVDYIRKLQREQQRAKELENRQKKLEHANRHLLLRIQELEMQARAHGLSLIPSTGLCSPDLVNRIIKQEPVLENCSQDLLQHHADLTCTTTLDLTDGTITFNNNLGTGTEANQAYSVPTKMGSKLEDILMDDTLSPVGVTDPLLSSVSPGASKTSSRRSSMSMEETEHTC
The experiment in a line: reducers of TRPM1 reporter luminescence, concentration series – cell-based, SK-MEL-5, cherry-picked, set 3, MITF inhibitor project, dose response (AID 493073).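 Note: SK-MEL-5 melanoma cells with luciferase driven by the MITF target TRPM1 promoter.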 It counts as functional.

Experiment [2] addresses FAD-linked sulfhydryl oxidase ALR (Homo sapiens, UniProt P55789). The experiment in a line: ALR-catalysed DTT oxidation blockers – biochemical, H2O2 detection, luminescence, cherry-pick, dose response (AID 493248).
The test system of the next experiment is P388/ADR. The experiment in a line: cells. It counts as functional. The following applies: Mus musculus.
In the next experiment the test system is P388. Description: cells. It counts as functional. To be noted: Mus musculus.
In the next experiment the target is Nonstructural protein 1 (Influenza A virus, UniProt Q194T2). It counts as functional, Influenza A virus (A/California/07/2009(H1N1)).
Experiment [3] concerns the target T2, DNA repair protein RAD52 homolog (Homo sapiens, UniProt P43351).
T2 sequence (P43351 whole entry): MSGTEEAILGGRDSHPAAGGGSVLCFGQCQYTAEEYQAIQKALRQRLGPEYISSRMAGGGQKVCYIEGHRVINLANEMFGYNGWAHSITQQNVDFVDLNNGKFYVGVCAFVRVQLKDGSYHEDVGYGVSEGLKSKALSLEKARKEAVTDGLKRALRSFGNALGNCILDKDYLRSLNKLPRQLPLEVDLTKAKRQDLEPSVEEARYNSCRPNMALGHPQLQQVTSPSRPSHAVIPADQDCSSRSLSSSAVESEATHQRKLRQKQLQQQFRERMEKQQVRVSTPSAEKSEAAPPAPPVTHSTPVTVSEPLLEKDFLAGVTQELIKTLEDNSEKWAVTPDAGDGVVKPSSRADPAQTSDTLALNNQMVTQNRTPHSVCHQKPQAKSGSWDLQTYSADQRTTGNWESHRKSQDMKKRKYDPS
Type of experiment: functional, biochemical.

The test system of experiment [4] is Streptococcus sp. 'group A'. Description: Streptococcus pyogenes SK(-)GAS viability under kanamycin – luminescence, BacTiterGlo, confirmation, counter-screen for streptokinase expression inhibitor project, dose response (AID 1900). Type of experiment: functional, organism-based.
Another experiment addresses T3, Streptokinase A (Streptococcus pyogenes serotype M1, UniProt P10520).
T3 sequence (P10520 whole entry): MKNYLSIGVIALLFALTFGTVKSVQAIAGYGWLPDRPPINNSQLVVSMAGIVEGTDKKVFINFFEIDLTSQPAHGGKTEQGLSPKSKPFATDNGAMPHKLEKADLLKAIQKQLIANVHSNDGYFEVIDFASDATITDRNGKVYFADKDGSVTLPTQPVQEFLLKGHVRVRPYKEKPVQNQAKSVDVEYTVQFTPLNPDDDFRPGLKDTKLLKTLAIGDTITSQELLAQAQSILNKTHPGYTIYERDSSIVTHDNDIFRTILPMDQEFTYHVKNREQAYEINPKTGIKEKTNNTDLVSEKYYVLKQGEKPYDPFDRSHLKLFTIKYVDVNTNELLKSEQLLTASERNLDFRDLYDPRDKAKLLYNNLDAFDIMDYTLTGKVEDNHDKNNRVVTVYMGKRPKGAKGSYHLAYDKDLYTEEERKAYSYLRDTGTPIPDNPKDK
Description: viability-normalized secreted streptokinase activity reduction – plasminogen activation absorbance, OD405, dose response (AID 1914).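 Note: secreted streptokinase activity via plasminogen activation per viability signal from cell pellet.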 Type of experiment: functional, Streptococcus pyogenes M1 GAS.

The next experiment has as its system Streptococcus. Description: GAS UMAA2166 growth inhibition – luminescence, BacTiterGlo, counter-screen for streptokinase expression inhibitor project, dose response (AID 1915).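 Note: potency for reduction of bacterial viability or growth.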 Type of experiment: functional, organism-based. For orientation: Counterscreens check selectivity or assay interference.
Experiment [5] can be described thus: Trypanosoma cruzi growth suppression in host cells – NIH3T3 host cells, beta-gal luminescence, confirmation (AID 2044).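 Note: intracellular parasites grown in NIH/3T3 mouse fibroblasts as host cells; luminescent beta-galactosidase reporter signal from transgenic T. cruzi replicating inside host cells; inhibitors lower the luminescence signal.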 Type of experiment: functional, cell-based.
Experiment [6] is described as follows: NIH3T3 cell viability loss – ATP luminescence, mouse fibroblasts, counter-screen, dose response (AID 2010).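 Note: cells exposed to compound for about 90 hours before reading.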 It counts as functional, cell-based.
The target of experiment [7] is Heat shock protein HSP 90-alpha (Homo sapiens, UniProt P07900). It counts as functional, organism-based.
In experiment [8] the target is T4, RNA-binding protein pos-1 (Caenorhabditis elegans, UniProt G5EF15).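 Note: purified POS-1 fused to maltose binding protein made in E. coli; potency of compounds blocking POS-1 binding to fluorescent RNA.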
T4 sequence (G5EF15 whole entry): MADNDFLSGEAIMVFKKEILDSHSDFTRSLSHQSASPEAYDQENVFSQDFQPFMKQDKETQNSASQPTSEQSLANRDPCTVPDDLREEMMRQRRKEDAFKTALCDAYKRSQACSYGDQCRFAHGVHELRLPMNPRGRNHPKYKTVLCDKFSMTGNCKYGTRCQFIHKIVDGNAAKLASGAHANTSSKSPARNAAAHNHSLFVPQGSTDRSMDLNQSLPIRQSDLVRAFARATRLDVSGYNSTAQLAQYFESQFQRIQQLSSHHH
The experiment in a line: disruptors of C. elegans POS-1 RNA interaction – biochemical, fluorescence polarization, dose response (AID 1964). (Fluorescence polarisation rises when a labelled molecule tumbles more slowly, as on binding a larger partner.)

In experiment [9] the target is T5, Zinc finger protein mex-5 (Caenorhabditis elegans, UniProt Q9XUB2).
T5 sequence (Q9XUB2 whole entry): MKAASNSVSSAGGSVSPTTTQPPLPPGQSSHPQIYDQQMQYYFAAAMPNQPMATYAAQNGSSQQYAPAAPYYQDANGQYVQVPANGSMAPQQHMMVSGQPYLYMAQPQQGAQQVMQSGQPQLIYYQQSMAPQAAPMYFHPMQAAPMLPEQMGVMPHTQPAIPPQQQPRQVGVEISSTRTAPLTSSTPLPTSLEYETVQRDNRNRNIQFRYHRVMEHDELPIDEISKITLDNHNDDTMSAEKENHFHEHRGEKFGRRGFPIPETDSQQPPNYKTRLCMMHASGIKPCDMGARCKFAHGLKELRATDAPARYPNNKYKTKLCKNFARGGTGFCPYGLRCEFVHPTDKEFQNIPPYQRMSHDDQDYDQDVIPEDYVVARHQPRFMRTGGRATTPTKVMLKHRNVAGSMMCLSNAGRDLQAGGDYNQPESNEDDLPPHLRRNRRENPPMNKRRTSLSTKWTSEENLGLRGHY
The experiment in a line: potency of MEX-5 RNA-binding blockers – biochemical, C. elegans, fluorescence polarization, dose response (AID 1960).

In the next experiment the target is Large T antigen (Simian virus 40, UniProt P03070). Type of experiment: functional, Betapolyomavirus macacae.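 Note: Confirmatory-stage PubChem screen for compounds that inhibit SV40 T antigen.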
In experiment [10] the target is T6, Rac GTPase-activating protein 1 (Homo sapiens, UniProt Q9H0H5).
T6 sequence (Q9H0H5 whole entry): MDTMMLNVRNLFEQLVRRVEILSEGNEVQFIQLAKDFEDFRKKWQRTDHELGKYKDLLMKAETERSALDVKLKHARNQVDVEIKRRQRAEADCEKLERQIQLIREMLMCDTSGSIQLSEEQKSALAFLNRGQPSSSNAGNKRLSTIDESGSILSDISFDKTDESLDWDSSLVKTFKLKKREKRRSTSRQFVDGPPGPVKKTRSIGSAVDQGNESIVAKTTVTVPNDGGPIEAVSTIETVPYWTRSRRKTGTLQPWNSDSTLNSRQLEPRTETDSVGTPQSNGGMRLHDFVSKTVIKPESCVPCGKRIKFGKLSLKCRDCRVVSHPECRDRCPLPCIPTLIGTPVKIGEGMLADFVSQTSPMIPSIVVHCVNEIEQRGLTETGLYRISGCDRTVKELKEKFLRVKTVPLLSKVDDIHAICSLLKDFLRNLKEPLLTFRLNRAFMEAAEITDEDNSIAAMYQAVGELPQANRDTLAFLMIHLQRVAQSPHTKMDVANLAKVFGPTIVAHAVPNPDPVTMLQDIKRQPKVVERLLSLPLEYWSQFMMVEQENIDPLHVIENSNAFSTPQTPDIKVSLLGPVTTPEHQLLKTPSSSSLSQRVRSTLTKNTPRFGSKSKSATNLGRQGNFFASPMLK
The experiment in a line: blockers of MgcRacGAP-driven Rac1 GTP hydrolysis – biochemical, ADP Hunter fluorescence, primary and confirmatory, confirmation (AID 624330). It counts as functional.

In a further experiment the test system is INS1. The experiment in a line: INS-1E survival protection against cytokine death – cell-based, luminescence, retest, dose response (AID 449756).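 Note: cell death triggered by IL-1 beta plus TNF-alpha plus IFN-gamma mixture; protective hits raise ATP signal compared with cytokine alone wells.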 To be noted: Rattus norvegicus, INS1. Type of experiment: functional.

The source made the active and inactive calls. A value given as a limit tells only on which side of the number the result lay.

Sequence of FAD-linked sulfhydryl oxidase ALR (P55789 whole entry): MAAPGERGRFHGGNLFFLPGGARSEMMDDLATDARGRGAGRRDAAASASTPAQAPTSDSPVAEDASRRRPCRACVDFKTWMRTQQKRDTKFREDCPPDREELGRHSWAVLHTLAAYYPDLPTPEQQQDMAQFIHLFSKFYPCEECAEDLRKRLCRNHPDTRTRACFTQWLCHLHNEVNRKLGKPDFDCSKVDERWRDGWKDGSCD
Sequence of Nonstructural protein 1 (Q194T2 whole entry): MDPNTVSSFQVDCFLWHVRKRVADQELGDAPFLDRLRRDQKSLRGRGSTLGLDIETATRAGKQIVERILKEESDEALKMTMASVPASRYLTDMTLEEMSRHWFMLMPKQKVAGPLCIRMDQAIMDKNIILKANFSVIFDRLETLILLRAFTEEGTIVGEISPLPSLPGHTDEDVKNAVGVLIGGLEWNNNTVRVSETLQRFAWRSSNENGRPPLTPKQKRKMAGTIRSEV
Sequence of Large T antigen (P03070 whole entry): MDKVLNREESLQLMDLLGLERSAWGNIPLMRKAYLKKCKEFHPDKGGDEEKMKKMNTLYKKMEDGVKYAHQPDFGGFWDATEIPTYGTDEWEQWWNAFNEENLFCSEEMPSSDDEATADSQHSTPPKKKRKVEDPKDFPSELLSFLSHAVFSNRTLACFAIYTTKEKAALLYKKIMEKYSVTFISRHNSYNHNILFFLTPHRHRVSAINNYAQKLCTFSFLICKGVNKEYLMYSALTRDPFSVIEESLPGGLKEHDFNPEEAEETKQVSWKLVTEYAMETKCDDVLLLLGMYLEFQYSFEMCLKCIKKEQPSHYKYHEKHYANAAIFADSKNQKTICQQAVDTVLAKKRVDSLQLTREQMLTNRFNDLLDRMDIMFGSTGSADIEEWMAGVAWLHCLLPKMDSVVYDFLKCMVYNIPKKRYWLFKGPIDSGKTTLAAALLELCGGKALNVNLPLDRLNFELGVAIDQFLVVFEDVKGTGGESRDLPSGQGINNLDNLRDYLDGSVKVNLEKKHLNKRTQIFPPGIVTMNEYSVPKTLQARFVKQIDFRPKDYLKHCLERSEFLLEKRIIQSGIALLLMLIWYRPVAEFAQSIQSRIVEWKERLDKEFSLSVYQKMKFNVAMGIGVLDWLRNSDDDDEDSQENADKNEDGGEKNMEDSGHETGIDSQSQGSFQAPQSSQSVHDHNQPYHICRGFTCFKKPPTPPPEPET

For orientation: AC50 means the midpoint of the concentration-response curve, whichever way the signal moves. Take `COc1cccc(C(=O)Nc2ccc3c(cc2=O)[C@@H](NC(C)=O)CCc2cc(OC)c(OC)c(OC)c2-3)c1`: in experiment [1], the half-maximal activity concentration (AC50) was 8.43 µM (active).

Consider `Cc1cc(C(=O)Nc2nnc(C3CCCCC3)s2)no1`, for which the AC50 in experiment [2] is 5.82 µM (active).

A word on the GI50: it is the concentration at which growth is held to half of that of the control. Take `O=C1c2cccc3cc4ccccc4c(c23)C(=O)N1CCNCCNCCNCCN1C(=O)c2cccc3cc4ccccc4c(c23)C1=O`: the GI50 in the experiment on P388/ADR was < 18.7 nM (active); with P388, < 14.6 nM (active).

One may read the IC50 as the midpoint of a concentration-inhibition curve. As for `COc1ccc(C(=O)COC(=O)CN2CC(=O)Oc3ccccc32)cc1Br`, at Nonstructural protein 1, the half-inhibitory concentration (IC50) was 4.25 µM (active).

Consider `CCOc1ccc(C(C)=O)cc1Cn1ccsc1=N`, for which the AC50 in [3] is 4.87 µM (active).

Broadly, the EC50 is the concentration that produces a half-maximal response. As to `Cc1nn(-c2ccccc2)c2sc(-c3nnc(S)o3)cc12`, the concentration for a half-maximal effect (EC50) is 4.28 µM (active) in experiment [4], > 150 µM (not active) on Streptokinase A and 99 µM (active) in the experiment with Streptococcus. The half-maximal activity concentration (AC50) in [2] was 2.63 µM (active).

On to `COc1ccc(-n2nc(C)cc2Nc2ccccc2C(=O)O)cc1`, for which the AC50 in experiment [2] is 3.72 µM (active).

`CC(C)(C)C(O)C(Oc1ccc(Cl)cc1)n1cncn1` (stereo not given) [TRIADIMENOL]: the EC50 in [5] is 1.51 µM (active); in experiment [6], > 60 µM (not active). The concentration at half-maximal activity (AC50) in experiment [7] was 0.29 µM (active).

`COc1ccc(C2=CC3=C(Br)C(=O)C(C)(OC(=O)c4ccco4)C(=O)C3=CO2)cc1` (stereo not given): the half-maximal effective concentration (EC50) is > 300 µM (not active) in experiment [8] and 35.9 µM (active) in experiment [9]. Moreover, the AC50 in experiment [7] was 4.13 µM (active).

On to `COc1ccc(C)cc1NC(=O)c1cc2c(CO)cnc(C)c2oc1=N`, for which the AC50 in [2] was 7.55 µM (active).

In the case of `CN(C)CCCNC(=O)c1ccc(-c2cc3nc(NCc4cccnc4)n(C)c(=O)c3s2)cc1`, the AC50 in [3] was 13.3 µM (active).

For `Cc1ccc(N/N=C(\C#N)C(=N)S)c(C)c1`, the values for the EC50 (in [4]; at Streptokinase A; with Streptococcus) were 32.6 µM (active), > 150 µM (not active) and 20.8 µM (active), respectively. For the same molecule, the concentration at half-maximal activity (AC50) in experiment [7] was 1.84 µM (active).

Take `COC(=O)C12OCC34C(CC5C(C)=CC(=O)C(O)C5(C)C3C(O)C1O)OC(=O)C(OC(=O)CC(C)C)C24` (stereo not given): the GI50 is 21.6 nM (active) in the experiment with P388/ADR and 1.54 nM (active) with P388.

In the case of `COc1cc(/C=N/NS(=O)(=O)c2ccc(C)c([N+](=O)[O-])c2)ccc1O`, the half-inhibitory concentration (IC50) on Large T antigen is 7.27 µM (active); in experiment [10], 40.9 µM (active). Besides, the concentration at half-maximal activity (AC50) in [2] was 0.181 µM (active).

For the molecule `O=C(Cc1ccccc1)NCC(=O)N/N=C/c1ccc([N+](=O)[O-])s1`, in experiment [1], the AC50 is 16.1 µM (active).

Take `CC(C)c1ccc2c(c1)C(=O)NC(C)(C)C2`: the AC50 in experiment [2] was 3.3 µM (active).

For the molecule `COc1cc2nc(O)c(C(=O)NCCCN3CCOCC3)c(O)c2cc1OC`, the concentration at half-maximal activity (AC50) in [3] was 15 µM (active).

As for `O=C(c1ccc2c(c1)OCO2)N1CCN(c2ccccc2)CC1`, the half-maximal activity concentration (AC50) in [2] was 13.9 µM (active).

As for `CN(C)CCN1CCN(c2cc(-c3cccc(Cl)c3)nc3ccnn23)CC1`, in experiment [3], the AC50 is 6.97 µM (active).

Regarding `CC(C)COC(=O)c1ccc2c(c1O)C(=O)c1ccccc1C2=O`, at Nonstructural protein 1, the half-maximal inhibitory concentration (IC50) is 34.6 µM (active). For the same molecule, the half-maximal activity concentration (AC50) in the experiment with INS1 was 10.9 µM (active).
